Measured values published in EP2186515A1, “PHARMACEUTICAL COMPOSITION COMPRISING THE COMBINATION OF AN ANTI-DEPRESSIVE AGENT AND AN ANSIOLYTIC AGENT FOR CONTROL AND TREATMENT OF DEPRESSIVE DISORDERS” (World Trade Import-Export, WTIE A.G., priority 2007, dated 2009).

Key:
[1] = clinical; settings: human, in vivo, po
Source text: We performed a study on 30 healthy volunteer subjects using a double-blind design. Subjects with ages between 18 and 55 years were recruited. Exclusion criteria were: the use of substances with activity in CYP3A4 (quinidines), inhibitors (erythromycin), inducers (carbamazepines); consumption of illegal drugs (cocaine, heroin, tetrahydrocannabinoids); cigarettes, oral contraceptives, pregnancy, nursing, renal or liver disease history, obesity (>30% above ideal weight), abnormal biochemistry (electrolytes, liver or renal function) or hematologic (full count of blood cells).
After medicament delivery in each group, blood samples were taken at 0.5, 1, 1.5, 2, 2.5, 3, 4, 6, 8, 24 y 32 hours.

[2] = human, in vivo, cited from earlier work
[3] = test system: human serum proteins; settings: cited from earlier work
[4] = in vivo; cited from earlier work
[5] = test system: serotonin reuptake process; settings: relative to Sertraline; cited from earlier work
[6] = target: CYP2D6 isoenzyme (Homo sapiens, UniProt P10635); settings: cited from earlier work; for activity over CYP2D6 isoenzyme compared with fluoxetine and its active metabolite: relative to fluoxetine and its active metabolite
Chain of CYP2D6 isoenzyme (P10635 whole entry): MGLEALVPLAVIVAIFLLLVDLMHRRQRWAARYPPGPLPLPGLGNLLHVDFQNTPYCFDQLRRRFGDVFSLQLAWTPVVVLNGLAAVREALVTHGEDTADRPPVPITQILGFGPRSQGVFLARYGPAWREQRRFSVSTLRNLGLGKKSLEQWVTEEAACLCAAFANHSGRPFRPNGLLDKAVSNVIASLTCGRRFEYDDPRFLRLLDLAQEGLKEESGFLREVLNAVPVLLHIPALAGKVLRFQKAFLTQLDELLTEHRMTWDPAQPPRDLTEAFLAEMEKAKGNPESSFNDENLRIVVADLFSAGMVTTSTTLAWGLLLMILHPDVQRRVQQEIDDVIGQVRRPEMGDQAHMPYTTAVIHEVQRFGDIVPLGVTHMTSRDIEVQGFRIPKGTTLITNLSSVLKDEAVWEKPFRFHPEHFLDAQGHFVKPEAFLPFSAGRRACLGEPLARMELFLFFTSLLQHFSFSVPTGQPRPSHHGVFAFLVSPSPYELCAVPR

[7] = cited from earlier work
[8] = metabolites of Alprazolam; cited from earlier work

Compound: Cc1nnc2n1-c1ccc(Cl)cc1C(c1ccccc1)=NC2 [Alprazolam]
- t1/2 (Clearance half-life) (human, in vivo, po): 11.3 ± 2.2 h
- AUC(0-inf) [1]: 167 ± 53.1 ng·h/mL
- Cmax [1]: 12.6 ± 7.5 ng/mL
- Tmax [1]: 2.6 ± 1.4 h
- time to maximum plasma concentrations ([2]; po): 1 to 2 h
- Plasma clearance half-life, range [2]: 6.3 to 26.9 h
- attached to human serum proteins [3]: 80%
- concentrations in steady state related with toxicity [4]: higher than 60 ng/mL

Compound: N[C@H]1CC[C@@H](c2ccc(Cl)c(Cl)c2)c2ccccc21 [DemethylSertraline]
- activity over serotonin reuptake process compared with unaltered drug [5]: eight times lower
- activity over CYP2D6 isoenzyme compared with fluoxetine and its active metabolite [6]: five to ten times lower

Compound: CN[C@H]1CC[C@@H](c2ccc(Cl)c(Cl)c2)c2ccccc21 [Sertraline]
- effect of Sertraline on Alprazolam kinetics (the two drugs administered in combination): does not significantly alter
- variation coefficient of plasma concentrations ([7]; after delivering fixed doses): 38%
- dose recovered in urine and feces ([7]; oral administration, after seven days, 10080 min): 88%
- Plasma half-life ([7]; plasma): 22 to 30 h
- in vitro inhibition of CYP2D6 isoenzyme ([6]; in vitro): weak in vitro inhibition
- activity over CYP2D6 isoenzyme compared with fluoxetine and its active metabolite [6]: five to ten times lower

Compound: OCc1nnc2n1-c1ccc(Cl)cc1C(c1ccccc1)=NC2 [alpha-hydroxy-Alprazolam]
- biological activity compared with therapeutic activity of Alprazolam [8]: about one half

Compound: O=C(c1ccccc1)c1ccccc1 [benzophenone]
- biological activity compared with therapeutic activity of Alprazolam [8]: essentially inactive
